Like-named read-outs stand apart in the source and are kept apart here.
How the values were obtained:
HT-29 cells = test: Inhibition test for sphere formation assay of cancer cells; assay type: cell-based; details: for IC50: sphere culture (ultra-low attachment, serum-free), 4 days, CellTiter-Glo, read-out: Sphere IC50 value (concentration for 50% inhibition of cell proliferation); for activity for inhibiting cell proliferation in the sphere culture condition: summary in words
Description: Reliable methods established for measuring the self-renewal ability of cells which is one of the CSC's properties include a method for measuring the sphere-forming ability of cancer cells in non-adherent condition in the absence of serum (Cancer Res 65, 5506-5511 (2005)). HT-29 cells were available from American Type Culture Collection (ATCC). HT-29 cells were cultured at 37° C. under 5% CO2 using the McCoy's 5a medium containing 10% fetal bovine serum (FBS) and 1% penicillin/streptomycin. HT-29 cells were seeded in a 384 Well Black Clear Bottom Ultra-Low Attachment Microplate (Corning Cat. No. 3827) in an amount of 350-800 cells/well using the DMEM/F12 medium containing 2% B27 supplement (GIBCO), 20 ng/mL epidermal growth factor (EGF) (peprotech), 10 ng/mL basic fibroblast growth factor (bFGF) (peprotech), 5 μg/mL insulin (Sigma), and 1% penicillin/streptomycin. Each test compound was added into each well to adjust the final concentration of DMSO to 0.1%, and the cells were cultured for 4 days. The number of viable cells in each well was then measured with CellTiter-Glo™ Luminescent Cell Viability Assay (Promega) to calculate the concentration of each test compound for 50% inhibition of cell proliferation (Sphere IC50 value; […])
The experiment of Test 1 was performed for each compound of each Example. The concentration of each test compound for 50% inhibition of cell proliferation (Sphere IC50 value; μmol/L) is shown in the following Table.

hERG [1] = target: T1, hERG (Homo sapiens (Human), UniProt Q12809)
T1 sequence (Q12809 whole entry): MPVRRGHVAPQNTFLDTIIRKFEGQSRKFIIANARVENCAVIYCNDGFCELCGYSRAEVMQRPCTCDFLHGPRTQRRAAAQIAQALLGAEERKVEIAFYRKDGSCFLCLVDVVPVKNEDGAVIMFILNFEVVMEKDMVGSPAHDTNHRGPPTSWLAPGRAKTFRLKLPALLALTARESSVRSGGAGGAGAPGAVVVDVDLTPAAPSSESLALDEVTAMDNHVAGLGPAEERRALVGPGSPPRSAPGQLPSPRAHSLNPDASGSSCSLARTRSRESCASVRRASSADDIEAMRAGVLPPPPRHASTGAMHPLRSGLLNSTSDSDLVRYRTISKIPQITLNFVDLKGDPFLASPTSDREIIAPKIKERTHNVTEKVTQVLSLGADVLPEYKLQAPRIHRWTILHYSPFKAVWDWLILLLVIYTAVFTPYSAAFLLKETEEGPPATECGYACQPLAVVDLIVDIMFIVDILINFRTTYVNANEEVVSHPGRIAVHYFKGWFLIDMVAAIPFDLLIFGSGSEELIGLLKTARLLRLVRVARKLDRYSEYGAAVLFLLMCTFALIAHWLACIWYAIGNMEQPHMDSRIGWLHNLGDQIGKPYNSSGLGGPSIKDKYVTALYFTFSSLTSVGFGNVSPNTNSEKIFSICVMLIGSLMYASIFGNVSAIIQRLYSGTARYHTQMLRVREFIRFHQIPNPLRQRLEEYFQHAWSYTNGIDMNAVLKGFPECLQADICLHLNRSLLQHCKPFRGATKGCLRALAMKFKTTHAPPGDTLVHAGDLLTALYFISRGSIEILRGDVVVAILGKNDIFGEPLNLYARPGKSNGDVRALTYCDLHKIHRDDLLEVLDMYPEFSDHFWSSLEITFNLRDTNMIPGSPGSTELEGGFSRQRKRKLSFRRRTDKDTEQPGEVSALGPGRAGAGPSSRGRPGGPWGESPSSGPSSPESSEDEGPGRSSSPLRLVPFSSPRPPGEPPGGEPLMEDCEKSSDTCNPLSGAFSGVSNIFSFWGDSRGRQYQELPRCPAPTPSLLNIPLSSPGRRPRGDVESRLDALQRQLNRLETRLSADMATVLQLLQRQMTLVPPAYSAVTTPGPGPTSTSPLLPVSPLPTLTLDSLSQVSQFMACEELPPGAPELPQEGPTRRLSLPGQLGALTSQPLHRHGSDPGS
Description: (§1) To a cultured CHO cell strain which stably expresses hERG was added each test compound to adjust the final concentration of DMSO to 0.0135 to 0.5%. The hERG current was measured with QPatch HT (Sophion Inc.), and the concentration at which 50% of the hERG current was inhibited by each test compound (IC50 value; μM) was calculated.
(§2) The compounds of Examples were tested according to Test 2. And, the hERG/HT-29 was calculated by dividing the compound concentration obtained in Test 2 (50% of the hERG current is inhibited) by the compound concentration obtained in Test 1 (50% of the proliferation of HT-29 cells is inhibited).

hERG [2] = target: T1, hERG; test: Test for evaluating hERG inhibition (QPatch HT, CHO cell strain stably expressing hERG); details: for hERG/HT-29: hERG IC50 (Test 2) divided by HT-29 sphere IC50 (Test 1); for IC50: read-out: Binding inhibition (IC50, μM), concentration at which 50% of the hERG current was inhibited, CHO cells stably expressing hERG, QPatch HT; for deviation between the concentration of inhibiting 50% cell proliferation and the concentration of inhibiting 50% hERG current: summary in words of hERG/HT-29
Description: as §1, §2

Structure (SMILES) | IC50 (HT-29 cells) [nM] | IC50 (hERG [1]) [nM] | hERG/HT-29 (hERG [1]) | hERG/HT-29 (hERG [2]) | IC50 (hERG [2]) [µM] | activity for inhibiting cell proliferation in the sphere culture condition (HT-29 cells) | deviation between the concentration of inhibiting 50% cell proliferation and the concentration of inhibiting 50% hERG current (hERG [2])
CC1(C)Oc2ccc(Cl)cc2C2OCC3(CCN(C(=O)Cn4cnc(C(F)(F)F)c4)CC3)CC21 (centres unmarked) [Example 17] | 8300 | 3000 | 0.36 | – | – | – | –
CC1(C)Oc2ccc(Cl)cc2C2OCC3(CCN(CCn4cnc(CO)c4)CC3)CC21 (centres unmarked) [Example 55] | 60 | 1600 | 26.7 | – | – | – | –
Cc1nccn1CCN1CCC2(CC1)COC1c3cc(F)ccc3OC(C)(C)C1C2 (centres unmarked) [Example 43] | 50 | 1000 | 20 | – | – | – | –
CC1(C)Oc2ccc(Cl)cc2C2OCC3(CCN(C(=O)Cn4ccnc4C#N)CC3)CC21 (centres unmarked) [Example 12] | 550 | 2900 | 5.27 | – | – | – | –
CC(=O)NCCc1nccn1CCN1CCC2(CC1)COC1c3cc(Cl)ccc3OC(C)(C)C1C2 (centres unmarked) [Example 60] | 160 | 1100 | 6.88 | – | – | – | –
Cc1nccn1CC(=O)N1CCC2(CC1)COC1c3cc(Cl)ccc3OC(C)(C)C1C2 (single isomer, unassigned) [Example 3] | 80 | 200 | 2.50 | – | – | – | –
CC1(C)Oc2ccc(Cl)cc2C2OCC3(CCN(Cc4c[nH]cn4)CC3)CC21 (centres unmarked) [Example 29] | 810 | – | – | 3.21 | 2.6 | – | –
Cc1nccn1CC(=O)N1CCC2(CC1)COC1c3cc(F)ccc3OC(C)(C)C1C2 (centres unmarked) [Example 2] | 240 | – | – | – | < 0.3 | – | –
Cc1nc[nH]c1CN1CCC2(CC1)COC1c3cc(Cl)ccc3OC(C)(C)C1C2 (centres unmarked) [Example 26] | < 10 | – | – | >60 | 0.6 | potent activity | good deviation
Cc1nc[nH]c1CN1CCC2(CC1)COC1c3cc(F)ccc3OC(C)(C)C1C2 (centres unmarked) [Example 21] | 210 | – | – | 7.14 | 1.5 | – | –
CC1(C)Oc2cc(Cl)ccc2C2OCC3(CCN(CCn4ccnc4)CC3)CC21 (centres unmarked) [Example 41] | < 10 | – | – | >70 | 0.7 | potent activity | good deviation
Cc1nccn1CC(=O)N1CCC2(CC1)COC1c3cc(Br)ccc3OC(C)(C)C1C2 (centres unmarked) [Example 7] | 90 | – | – | – | < 0.3 | – | –
Cc1nccn1CC(=O)N1CCC2(CC1)COC1c3ccc(Br)cc3OC(C)(C)C1C2 (centres unmarked) [Example 8] | 310 | 300 | 0.97 | – | – | – | –
Cc1nc[nH]c1CN1CCC2(CC1)COC1c3cc(F)ccc3OC(C)(C)C1C2 (centres unmarked) [Example 23] | 60 | – | – | 23.3 | 1.4 | – | –
Cc1nccn1CCN1CCC2(CC1)COC1c3ccc(Cl)cc3OC(C)(C)C1C2 (centres unmarked) [Example 51] | < 10 | – | – | >90 | 0.9 | potent activity | good deviation
CC1(C)Oc2ccc(Cl)cc2C2OCC3(CCN(C(=O)Cn4ccnc4CO)CC3)CC21 (centres unmarked) [Example 15] | 300 | 1600 | 5.33 | – | – | – | –
CC1(C)Oc2ccc(N=[N+]=[N-])cc2C2OCC3(CCN(C(=O)Cn4ccnc4C#N)CC3)CC21 (centres unmarked) [Example 11] | 4090 | 4900 | 1.20 | – | – | – | –
Cc1nccn1CC(=O)N1CCC2(CC1)COC1c3cccc(Cl)c3OC(C)(C)C1C2 (centres unmarked) [Example 6] | 610 | – | – | – | < 0.3 | – | –
Cc1nc(CO)cn1CCN1CCC2(CC1)COC1c3ccc(Cl)cc3OC(C)(C)C1C2 (centres unmarked) [Example 57] | 70 | 1100 | 15.7 | – | – | – | –
Cc1nccn1CCN1CCC2(CC1)COC1c3cc(F)ccc3OC(C)(C)C1C2 (centres unmarked) [Example 45] | < 10 | 400 | >40 | – | – | potent activity | –
Cc1nccn1CC(=O)N1CCC2(CC1)COC1c3ccc(Cl)cc3OC(C)(C)C1C2 (centres unmarked) [Example 5] | 410 | – | – | – | < 0.3 | – | –
Cc1nccn1CCN1CCC2(CC1)COC1c3cc(F)ccc3OC(C)(C)C1C2 (centres unmarked) [Example 44] | < 10 | – | – | >360 | 3.6 | potent activity | good deviation
Cc1nccn1CCN1CCC2(CC1)COC1c3ccc(Cl)cc3OC(C)(C)C1C2 (centres unmarked) [Example 50] | 30 | 1500 | 50 | – | – | – | –
Cc1c(CO)ncn1CC(=O)N1CCC2(CC1)COC1c3cc(Cl)ccc3OC(C)(C)C1C2 (centres unmarked) [Example 14] | 400 | 300 | 0.75 | – | – | – | –
Cc1nccn1CC(=O)N1CCC2(CC1)COC1c3cccc(Br)c3OC(C)(C)C1C2 (centres unmarked) [Example 9] | 770 | – | – | – | < 0.3 | – | –
CC1(C)Oc2ccc(Cl)cc2C2OCC3(CCN(CCn4ccnc4)CC3)CC21 (centres unmarked) [Example 40] | < 10 | – | – | >140 | 1.4 | potent activity | good deviation
CC1(C)Oc2ccc(Cl)cc2C2OCC3(CCN(CCn4ccnc4C#N)CC3)CC21 (centres unmarked) [Example 58] | 70 | 1900 | 27.1 | – | – | – | –
Cc1nccn1CCN1CCC2(CC1)COC1c3ccc(Cl)cc3OC(C)(C)C1C2 (centres unmarked) [Example 49] | < 10 | – | – | >140 | 1.4 | potent activity | good deviation

— patent US10807993B2, “Dihydrochromene derivatives” (Sumitomo Dainippon Pharma Co., Ltd., priority 2018, dated 2020)
